This assay has as its target T1, Acid-sensing ion channel 3 (Rattus norvegicus, UniProt O35240).
T1 sequence (O35240 whole entry): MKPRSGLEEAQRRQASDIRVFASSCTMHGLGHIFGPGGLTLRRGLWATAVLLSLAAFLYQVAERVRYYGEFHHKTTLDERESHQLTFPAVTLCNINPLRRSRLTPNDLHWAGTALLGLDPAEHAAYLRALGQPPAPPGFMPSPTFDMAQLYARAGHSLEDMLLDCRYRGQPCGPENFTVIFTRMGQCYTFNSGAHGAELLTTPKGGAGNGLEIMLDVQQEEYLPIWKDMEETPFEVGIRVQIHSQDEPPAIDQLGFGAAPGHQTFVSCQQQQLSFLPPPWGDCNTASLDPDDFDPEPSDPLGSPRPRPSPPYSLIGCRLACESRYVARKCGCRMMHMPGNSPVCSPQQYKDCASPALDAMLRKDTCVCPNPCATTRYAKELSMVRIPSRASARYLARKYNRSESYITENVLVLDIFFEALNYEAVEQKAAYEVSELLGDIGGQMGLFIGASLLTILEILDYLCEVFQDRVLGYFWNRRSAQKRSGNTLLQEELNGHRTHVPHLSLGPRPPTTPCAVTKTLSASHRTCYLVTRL
Description: Modulation of rat ASIC3 expressed in Xenopus laevis oocytes at -70 mV holding potential by two-electrode voltage clamp method. It is filed as cell-based. A general note: Two-electrode voltage clamp is typically applied to oocytes expressing channels or transporters.

Residues, ends and D or L forms follow the SMILES beside them.

A word on the EC50: it is the concentration needed to bring the measured effect to its halfway point.

Consider `N=C(N)NCCC[C@H](NC(=O)[C@@H]1CCCN1C(=O)[C@@H](N)CCCNC(=N)N)C(=O)N[C@@H](Cc1ccccc1)C(=O)O` (H-RPRF-OH), for which the EC50 was found to be 3 µM.
